From ChEMBL document CHEMBL5329200, “Structure-guided design and synthesis of ATP-competitive N-acyl-substituted sulfamide d-alanine-d-alanine ligase inhibitors” (Bioorg Med Chem, 2023)

Tests used:
Staphylococcus aureus = test: Inhibition of C-terminal hexahistidine-tagged recombinant Staphylococcus aureus Ddl expressed in Escherichia coli BL21(DE3) assessed as remaining activity using D-Ala as substrate at 250 uM incubated for 5 mins in presence of ATP by antimony phosphomolybdate assay (reference value: 100+/-2%)
[1] = Inhibition of C-terminal hexahistidine-tagged recombinant Staphylococcus aureus Ddl expressed in Escherichia coli BL21(DE3) using D-Ala as substrate in presence of ATP by PK/LDH couples assay

| SMILES | Activity (Staphylococcus aureus) | IC50 [1] |
| --- | --- | --- |
| Nc1ncnc2c1ncn2CCCCNS(=O)(=O)NC(=O)OCCc1ccc(Cl)c(Cl)c1 | 110% |  |
| Nc1ncnc2c1ncn2[C@@H]1O[C@H](CCNS(=O)(=O)NC(=O)OCCc2ccccc2Cl)[C@@H](O)[C@H]1O | 87% |  |
| COc1ccc(CCOC(=O)NS(=O)(=O)NCC[C@H]2O[C@@H](n3cnc4c(N)ncnc43)[C@H](O)[C@@H]2O)cc1 | 89% |  |
| Nc1ncnc2c1ncn2[C@@H]1O[C@H](CCNS(=O)(=O)NC(=O)OCCN2OC[C@@H](N)C2=O)[C@@H](O)[C@H]1O | 70% | 1.7 mM |
| CC(C)(C)OC(=O)N[C@@H]1CON(CCO)C1=O | 90% |  |
| Nc1ncnc2c1ncn2[C@@H]1O[C@H](CCNS(=O)(=O)NC(=O)OCCc2ccccc2)[C@@H](O)[C@H]1O | 80% | > 2.5 mM |
| CC1CNCCN1CCOC(=O)NS(=O)(=O)NCC[C@H]1O[C@@H](n2cnc3c(N)ncnc32)[C@H](O)[C@@H]1O (stereo partly drawn) | 76% | > 2.5 mM |
| NCC[C@H]1O[C@@H](n2cnc3c(N)ncnc32)[C@H](O)[C@@H]1O | 63% | 2.2 mM |
| Nc1ncnc2c1ncn2[C@@H]1O[C@H](CCNS(=O)(=O)NC(=O)OCCCC2CCCC2)[C@@H](O)[C@H]1O | 79% | > 2.5 mM |
| COc1ccc(CCCCOC(=O)NS(=O)(=O)NCC[C@H]2O[C@@H](n3cnc4c(N)ncnc43)[C@H](O)[C@@H]2O)cc1 | 90% |  |
| Nc1ncnc2c1ncn2[C@@H]1O[C@H](CCNS(=O)(=O)NC(=O)OCCc2ccc(Cl)c(Cl)c2)[C@@H](O)[C@H]1O | 85% |  |
| CC(C)(C)OC(=O)NS(=O)(=O)NCC[C@H]1O[C@@H](n2cnc3c(N)ncnc32)[C@@H]2OC(C)(C)O[C@@H]21 | 91% |  |
| Nc1ncnc2c1ncn2[C@@H]1O[C@H](CCNS(=O)(=O)NC(=O)OCCc2cccc(Cl)c2)[C@@H](O)[C@H]1O | 91% |  |
| N[C@@H]1CONC1=O [CYCLOSERINE] | 35% | 0.1 mM |
| Nc1ncnc2c1ncn2[C@@H]1O[C@H](CCNS(=O)(=O)NC(=O)OCCCc2ccc(Cl)cc2)[C@@H](O)[C@H]1O | 96% |  |
| CC1(C)O[C@@H]2[C@H](O1)[C@@H](CCN)O[C@H]2n1cnc2c(N)ncnc21 | 82% |  |
| CC1(C)O[C@@H]2[C@H](O1)[C@@H](CCNS(=O)(=O)NC(=O)OCCc1ccc(Cl)c(Cl)c1)O[C@H]2n1cnc2c(N)ncnc21 | 89% |  |
| Cc1ccc(CCCOC(=O)NS(=O)(=O)NCC[C@H]2O[C@@H](n3cnc4c(N)ncnc43)[C@H](O)[C@@H]2O)cc1 | 82% |  |
| Nc1ncnc2c1ncn2[C@@H]1O[C@H](CCNS(=O)(=O)NC(=O)OCCc2ccccc2F)[C@@H](O)[C@H]1O | 84% |  |
| CC1CN(C(=O)OC(C)(C)C)CCN1CCOC(=O)NS(=O)(=O)NCC[C@H]1O[C@@H](n2cnc3c(N)ncnc32)[C@H](O)[C@@H]1O (stereo partly drawn) | 95% |  |
| Nc1ncnc2c1ncn2[C@@H]1O[C@H](CCNS(N)(=O)=O)[C@@H](O)[C@H]1O | 72% | 1.6 mM |
